Results published in publication PMC8235661, “Photoelectric Dye, NK-5962, as a Potential Drug for Preventing Retinal Neurons from Apoptosis: Pharmacokinetic Studies Based on Review of the Evidence” (Life, 2021).
Read-outs that look alike come from different tables or passages of the source.

Legend:
Eye irritation test = conditions: in vivo
[1] = Repeated-dose systemic toxicity test; conditions: in vivo
[2] = test system: apoptotic cells in the retinal outer nuclear layer of RCS rats; experiment: Intravitreous injection of NK-5962 in RCS rats, TUNEL assay of retinal outer nuclear layer; format: in vivo, rat
Procedure: NK-5962 powder was dissolved in distilled deionized water at a concentration of 8.2 μg/mL (16 μM). This original stock solution of NK-5962 (8.2 μg/mL) was diluted with saline (0.9% sodium chloride) to make a series of 10-fold dilutions from 8.2 × 10^−4 to 8.2 μg/mL. Twenty male pink-eyed RCS rats (RCS/Jcl-rdy/rdy, p-, CLEA Japan, Inc., Tokyo, Japan) at the age of 4 weeks were assigned to 5 groups (n = 4) that received NK-5962 at 5 different concentrations. Intravitreous injection was performed twice at the age of 4 and 5 weeks (Figure 4A). This study was approved by the Animal Care and Use Committee at the Okayama University (Identifier OKU-2013441) and based on the Animal Welfare and Management Act in Japan.
RCS rats were anesthetized by intraperitoneal injection of ketamine (87 mg/kg body weight, Daiichi Sankyo, Tokyo, Japan) and xylasine (13 mg/kg, Bayer Japan, Osaka, Japan). Mydriasis was induced by 0.5% tropicamide and 0.5% phenylephrine instillation (Santen Pharmaceutical, Osaka, Japan) and corneal anesthesia was further obtained with 0.4% oxybuprokaine instillation (Santen Pharmaceutical, Osaka, Japan). Under a dissecting microscope, 3 μL of NK-5962 solution and saline (0.9% sodium chloride) was injected into the vitreous of the left eye and the right eye, respectively, with a 30-gauge needle attached to a Hamilton syringe (50 μL 1705 LT SYR; Hamilton Company, Reno, NV, USA). The needle was inserted almost at a perpendicular angle and at 1mm from the corneoscleral limbus to avoid the damage to the lens. Antibiotic (0.5% moxifloxacin, Novartis Pharma Japan, Tokyo, Japan) eye drops were instilled for both eyes. Each rat was housed in a standard rat cage in the 12 h light and dark cycle at the Animal Center of Okayama University. In a separate experiment, 3 rats were placed and maintained in constant darkness after intravitreous injection of NK-5962 at a concentration of 8.2 μg/mL (16 μM).
Apoptotic cells were detected by terminal deoxynucleotidyl transferase-mediated fluorescein-conjugated dUTP nick-end-labeling (TUNEL) assay, according to the manufacturer’s instructions (In Situ Cell Death Detection Kit, Roche Diagnostics, Mannheim, Germany). The images at the constant exposure time were captured by an Olympus FSX100 microscope that was equipped with the fluorescent filter cube U-MWIBA3. Five photographs in each of 5 retinal vertical sections per eye were taken and an entire frame (220 × 165 μm) of each photograph with ×40 NA0.95 objective lens was used for measurements. The number of TUNEL-positive cells in the outer nuclear layer at each retinal site (a, b, c and d, Figure 4B) was counted in each frame of photographs. The number of TUNEL-positive cells per 1,000 μm^2 of the outer nuclear layer was calculated for comparison by two-factor ANOVA. […]

SMILES: CCCCN(CCCC)c1ccc(C=Cc2sc3ccccc3[n+]2CC(=O)O)cc1.[Br-] [NK-5962, 2-[2-[4-(dibutylamino)phenyl]ethenyl]-3-carboxymethylbenzothiazolium bromide]
- toxicity in the eye irritation test (Eye irritation test): not toxic
- repeated-dose systemic toxicity test [1]: not toxic
- percent ratio of the number of TUNEL-positive cells versus saline ([2]; 1.6 μM NK-5962 intravitreous): 61%
- percent ratio of the number of TUNEL-positive cells versus saline ([2]; 16 μM NK-5962 intravitreous): 56%
- EC50 ([2]; 16 μM × 3 μL / (3 + 13) μL, rat vitreous cavity estimated 13 μL, read-out: in vivo EC50 as intravitreous concentration): 3 µM
- EC50 ([2]; Rattus norvegicus, 3 μL intravitreous injection, read-out: EC50 (50% effective concentration), concentration of injected solution): ~16 µM
